Read-outs that look alike come from different tables or passages of the source.
Tests used:
[1] = test system: visceral hypersensitivity; design: species or system adult female Sprague Dawley rats; conditions: rat
[2] = test system: castor oil induced diarrhoea; design: species or system male NMRI mice; conditions: mouse, sc
normal colon transit = test system: normal colon transit; design: species or system male Sprague Dawley rats; conditions: rat

Row | Structure (SMILES) | In vivo agonism hypersensitivity max inhibition % of control ([1]; sc) | In vivo agonism diarrhoea mean score % control [2] | In vivo agonism transit Mean retention time % control (normal colon transit; sc) | In vivo agonism transit Mean retention time % control (normal colon transit; po) | In vivo agonism hypersensitivity max inhibition % of control ([1]; po)
1 | CC1(C)C2CCC(CCN3CCC4(CC3)C(=O)NCN4c3ccccc3)C1C2 (stereo not shown) [Example 1, 8-[2-(6,6-Dimethyl-bicyclo[3.1.1]hept-2-yl)-ethyl]-1-phenyl-1,3,8-triaza-spiro[4.5]decan-4-one] | 49 (s.c.) % of control |  |  |  | 
2 | CNCCCN1CN(c2ccccc2)C2(CCN(CCC3CCC4CC3C4(C)C)CC2)C1=O (stereo not shown) [Example 13, 8-[2-(6,6-Dimethyl-bicyclo[3.1.1]hept-2-yl)-ethyl]-3-(3-methylamino-propyl)-1-phenyl-1,3,8-triaza-spiro[4.5]decan-4-one] |  | 59 (s.c.) % control | 105 (s.c.) % control |  | 
3 | CNCCCCN1CN(c2ccccc2)C2(CCN(CCC3CCC4CC3C4(C)C)CC2)C1=O (stereo not shown) [Example 14] |  | 64 (s.c.) % control | 111 (s.c.) % control |  | 
4 | CN(CCCN1CN(c2ccccc2)C2(CCN(CCC3CCC4CC3C4(C)C)CC2)C1=O)CC1(O)CCNCC1 (stereo not shown) [Example 37, 8-[2-(6,6-Dimethyl-bicyclo[3.1.1]hept-2-yl)-ethyl]-3-{3-[(4-hydroxy-piperidin-4-ylmethyl)-methyl-amino]-propyl}-1-phenyl-1,3,8-triaza-spiro[4.5]decan-4-one] | 34 (s.c.) % of control |  |  |  | 
5 | CN(CCN1CN(c2ccccc2)C2(CCN(CCC3CCC4CC3C4(C)C)CC2)C1=O)C(c1ccco1)C(O)CO (stereo not shown) [Example 51] | 45 (s.c.) % of control |  | 102 (s.c.) % control | 105 (p.o.) % control | 44 (p.o.) % of control

— patent US7241770B2 (priority 2003, dated 2007)
